Test results: ChEMBL document CHEMBL4304773, “Nitroimidazole-containing compounds and their antibacterial and antitubercular activities” (2019)
≈ marks a conversion by molar mass, not a printed value.

Assays:
Assay type in all cases: functional
Escherichia coli [1] = experiment: Antibacterial activity against Escherichia coli
Enterococcus faecalis [2] = experiment: Antibacterial activity against Enterococcus faecalis
Acinetobacter baumannii = experiment: Antibacterial activity against Acinetobacter baumannii
Pseudomonas aeruginosa [3] = experiment: Antibacterial activity against Pseudomonas aeruginosa
Staphylococcus aureus [4] = experiment: Antibacterial activity against Staphylococcus aureus ATCC 29213
Klebsiella pneumoniae [5] = experiment: Antibacterial activity against Klebsiella pneumoniae
Staphylococcus aureus [6] = experiment: Antibacterial activity against methicillin-resistant Staphylococcus aureus N315
Pseudomonas aeruginosa [7] = experiment: Antibacterial activity against Pseudomonas aeruginosa ATCC 27853
Staphylococcus aureus [8] = experiment: Antibacterial activity against Staphylococcus aureus ATCC 25923
Escherichia coli [9] = experiment: Antibacterial activity against Escherichia coli ATCC 25922
Klebsiella pneumoniae [10] = experiment: Antibacterial activity against Klebsiella pneumoniae after 24 hrs
Escherichia coli [11] = experiment: Antibacterial activity against Escherichia coli ATCC 25922 after 24 hrs; conditions: ATCC 25922, 24 h
Pseudomonas aeruginosa [12] = experiment: Antibacterial activity against Pseudomonas aeruginosa ATCC 27853 after 24 hrs; conditions: ATCC 27853, 24 h
Staphylococcus aureus [13] = experiment: Antibacterial activity against Staphylococcus aureus ATCC 25923 after 24 hrs; conditions: ATCC 25923, 24 h
Staphylococcus aureus [14] = experiment: Antibacterial activity against methicillin-resistant Staphylococcus aureus after 24 hrs
Staphylococcus aureus [15] = experiment: Antibacterial activity against Staphylococcus aureus ATCC 29213 after 24 hrs; conditions: ATCC 29213, 24 h
Enterococcus faecalis [16] = experiment: Antibacterial activity against Enterococcus faecalis after 24 hrs
Pseudomonas aeruginosa [17] = experiment: Antibacterial activity against Pseudomonas aeruginosa after 24 hrs
Staphylococcus aureus [18] = experiment: Antibacterial activity against Staphylococcus aureus
Candida albicans = experiment: Antifungal activity against Candida albicans
Bacillus subtilis = experiment: Antibacterial activity against Bacillus subtilis

Structure (SMILES)	MIC (Escherichia coli [1])	MIC (Enterococcus faecalis [2])	MIC (Acinetobacter baumannii)	MIC (Pseudomonas aeruginosa [3])	MIC (Staphylococcus aureus [4])	MIC (Klebsiella pneumoniae [5])	MIC (Staphylococcus aureus [6])	MIC (Pseudomonas aeruginosa [7])	MIC (Staphylococcus aureus [8])	MIC (Escherichia coli [9])	MIC (Staphylococcus aureus [18])	MIC (Bacillus subtilis)	other results
CCCCCCN1CCN(c2ccc3c4c(cccc24)C(=O)N(CC(O)Cn2c([N+](=O)[O-])cnc2C)C3=O)CC1 (stereo not given)	13 to 1020 µM	13 to 1020 µM (≈ 7.13 to 560 µg/mL)	13 to 1020 µM (≈ 7.13 to 560 µg/mL)	13 to 1020 µM	13 to 1020 µM (≈ 7.13 to 560 µg/mL)	13 to 1020 µM (≈ 7.13 to 560 µg/mL)	13 to 1020 µM (≈ 7.13 to 560 µg/mL)	13 to 1020 µM (≈ 7.13 to 560 µg/mL)	13 to 1020 µM (≈ 7.13 to 560 µg/mL)	13 to 1020 µM (≈ 7.13 to 560 µg/mL)	–	–	–
COc1ccc2cc3[n+](cc2c1OC)CCc1cc2c(cc1-3)OCO2 [BERBERINE]	–	–	–	–	–	–	–	–	–	–	–	–	MIC (Klebsiella pneumoniae [10]): 11 to 688 µM; MIC (Escherichia coli [11]): 11 to 688 µM; MIC (Pseudomonas aeruginosa [12]): 11 to 688 µM; MIC (Staphylococcus aureus [13]): 11 to 688 µM; MIC (Staphylococcus aureus [14]): 11 to 688 µM; MIC (Staphylococcus aureus [15]): 11 to 688 µM; MIC (Enterococcus faecalis [16]): 11 to 688 µM; MIC (Pseudomonas aeruginosa [17]): 11 to 688 µM
CC(=O)N1N=C(Cn2c([N+](=O)[O-])cnc2C)OC1(C)c1ccc(Br)cc1 (stereo not given)	0.25 to 0.5 µg/mL	–	–	0.25 to 0.5 µg/mL	–	–	–	–	–	–	0.25 to 0.5 µg/mL (≈ 0.592 to 1.18 µM)	0.25 to 0.5 µg/mL (≈ 0.592 to 1.18 µM)	MIC (Candida albicans): 0.25 to 0.5 µg/mL (≈ 0.592 to 1.18 µM)
COc1ccccc1Cc1nnc(Cn2c([N+](=O)[O-])cnc2C)o1	3.12 to 4.56 µg/mL	–	–	3.12 to 4.56 µg/mL	–	–	–	–	–	–	3.12 to 4.56 µg/mL (≈ 9.47 to 13.8 µM)	3.12 to 4.56 µg/mL (≈ 9.47 to 13.8 µM)	–
CCOc1c(OC)cc(/C=C(\C#N)n2cc([N+](=O)[O-])nc2C)c2c1CN1CCc3cc4c(cc3C1C2)OCO4 (stereo not given)	–	–	–	–	–	–	–	–	–	–	–	–	MIC (Klebsiella pneumoniae [10]): 3 to 1020 µM (≈ 1.59 to 541 µg/mL); MIC (Escherichia coli [11]): 3 to 1020 µM (≈ 1.59 to 541 µg/mL); MIC (Pseudomonas aeruginosa [12]): 3 to 1020 µM (≈ 1.59 to 541 µg/mL); MIC (Staphylococcus aureus [13]): 3 to 1020 µM (≈ 1.59 to 541 µg/mL); MIC (Staphylococcus aureus [14]): 3 to 1020 µM (≈ 1.59 to 541 µg/mL); MIC (Staphylococcus aureus [15]): 3 to 1020 µM (≈ 1.59 to 541 µg/mL); MIC (Enterococcus faecalis [16]): 3 to 1020 µM (≈ 1.59 to 541 µg/mL); MIC (Pseudomonas aeruginosa [17]): 3 to 1020 µM (≈ 1.59 to 541 µg/mL)
OC(Cn1cncn1)(Cn1cncn1)c1ccc(F)cc1F [FLUCONAZOLE]	0.25 µg/mL	–	–	0.25 µg/mL	–	–	–	–	–	–	0.25 µg/mL (≈ 0.816 µM)	0.25 µg/mL (≈ 0.816 µM)	MIC (Candida albicans): 0.25 µg/mL (≈ 0.816 µM)
Cc1ncc([N+](=O)[O-])n1CC(O)CN1C(=O)c2cccc3c(N4CCN(CC#N)CC4)ccc(c23)C1=O (stereo not given)	13 to 1020 µM	13 to 1020 µM (≈ 6.55 to 514 µg/mL)	13 to 1020 µM (≈ 6.55 to 514 µg/mL)	13 to 1020 µM	13 to 1020 µM (≈ 6.55 to 514 µg/mL)	13 to 1020 µM (≈ 6.55 to 514 µg/mL)	13 to 1020 µM (≈ 6.55 to 514 µg/mL)	13 to 1020 µM (≈ 6.55 to 514 µg/mL)	13 to 1020 µM (≈ 6.55 to 514 µg/mL)	13 to 1020 µM (≈ 6.55 to 514 µg/mL)	–	–	–
Cc1ncc([N+](=O)[O-])n1CC(O)CN1C(=O)c2cccc3c(N4CCOCC4)ccc(c23)C1=O (stereo not given)	69 to 1140 µM	69 to 1140 µM (≈ 32.1 to 531 µg/mL)	69 to 1140 µM (≈ 32.1 to 531 µg/mL)	69 to 1140 µM	69 to 1140 µM (≈ 32.1 to 531 µg/mL)	69 to 1140 µM (≈ 32.1 to 531 µg/mL)	69 to 1140 µM (≈ 32.1 to 531 µg/mL)	69 to 1140 µM (≈ 32.1 to 531 µg/mL)	69 to 1140 µM (≈ 32.1 to 531 µg/mL)	69 to 1140 µM (≈ 32.1 to 531 µg/mL)	–	–	–
